The target of series [1] is T1, TTR in human blood plasma (Homo sapiens, UniProt P02766).
T1 construct: from tissue; host or cells: human blood plasma
The series can be described thus: blood plasma TTR binding selectivity, antibody capture method. The note with it: inhibitor 10.8 μM. How it is done:
Inhibitor binding selectivity to TTR in human blood plasma was assessed using a previously established antibody capture method (Purkey, H. E.; et al. Proc. Natl. Acad. Sci. USA 2001, 98, 5566-5571). In this evaluation, inhibitors (10.8 μM, ˜2-3× the natural concentration of TTR) are incubated in human blood plasma for 24 h at 37° C. Quenched sepharose resin is then added to the plasma to remove any small molecules that would bind to the resin as opposed to TTR. TTR and any TTR-bound small molecule is then immunocaptured using a polyclonal TTR antibody covalently attached to sepharose resin. After washing the resin (5×10 min washes), the antibody-TTR complex is dissociated at high pH and analyzed by RP-HPLC. The relative stoichiometry between TTR and inhibitor is then calculated from their HPLC peak areas using standard curves.
(§1) The procedures used for bacterial expression of TTR (Lai, Z.; et al. Biochemistry 1996, 35, 6470-6482), the stagnant fibril formation assay (Colon, W.; Kelly, J. W. Biochemistry 1992, 31, 8654-8660; Lai, Z.; et al. Biochemistry 1996, 35, 6470-6482), the blood plasma binding selectivity assay (Purkey, H. E.; et al. Proc. Natl. Acad. Sci. USA 2001, 98, 5566-5571), and analytical ultracentrifugation (Lashuel, H. A.; et al. Biochemistry 1998, 37, 17851-17864) have all been described in detail previously.
(§2) FIG. 3 is a chart showing a summary of dibenzofuran-based amyloid inhibition activity ([…]) against WT-TTR ([…]) fibril formation (pH 4.4, 72 h) and binding stoichiometry to TTR in human blood plasma. % Fibril formation (f.f.) values in the middle column represent the extent of f.f., and thus inhibitor efficacy, relative to WT-TTR f.f. in the absence of inhibitor (assigned to be 100%). Complete inhibition is equivalent to 0% f.f. The right column depicts the observed stoichiometry of inhibitor (dosed at […], ˜2-3× the concentration of plasma TTR) bound to TTR in blood plasma as determined using the antibody capture method.

The nature of series [2]: precipitation of small molecule under acid-mediated amyloidogenic conditions in the absence of TTR. The series is classed as physicochemical. The following applies: 3.6 μM, pH 4.4, 37° C., 72 h. As to the method:
(§3) TTR amyloid inhibition efficacy was probed using a stagnant fibril formation assay described previously, wherein partial denaturation was triggered by acidification (pH 4.4, 37° C.) (Colon, W.; Kelly, J. W. Biochemistry 1992, 31, 8654-8660). Briefly, a test compound (7.2 or 3.6 μM) is incubated with TTR (3.6 μM) for 30 min in pH 7 buffer. Amyloidogenesis is then initiated by lowering to pH 4.4, where maximal fibril formation is observed with WT-TTR after 72 h (37° C.). The turbidity in the presence of a potential inhibitor (Ttest) is compared to that of a solution lacking a test compound (Tcontrol). […] From experience we know that excellent inhibitors allow <10% fibril formation at a small molecule concentration of 7.2 μM and <40% fibril formation at a concentration equal to that of WT-TTR (3.6 μM) (Hammarstrom, P.; et al. Science 2003, 299, 713-716; Klabunde, T.; et al. Nature Struct. Biol. 2000, 7, 312-321; Razavi, H.; et al. Angew Chem 2003, 42, 2758-2761; Miroy, G. J.; et al. Proc. Natl. Acad. Sci. USA 1996, 93, 15051-15056; Peterson, S. A.; et al. Proc. Natl. Acad. Sci. USA 1998, 95, 12956-12960; Baures, P. W.; et al. Bioorg. Med. Chem. 1998, 6, 1389-1401; Baures, P. W.; et al. Bioorg. Med. Chem. 1999, 7, 1339-1347; Petrassi, H. M.; et al. J. Am. Chem. Soc. 2000, 122, 2178-2192; McCammon, M. G.; et al. Structure 2002, 10, 851-863; Oza, V. B.; et al. J. Med. Chem. 2002, 45, 321-332; Sacchettini, J. C.; et al. Nature Rev. Drug Disc. 2002, 1, 267-275; Green, N. S.; et al. J. Am. Chem. Soc. 2003, 125, 13404-13414; Adamski-Werner, S. L.; et al. J. Med. Chem. 2004, 47, 355-374; Miller Sean, R.; et al. Lab. Inv. 2004, 84, 545-552). […] Therefore, when both the ligand and TTR are at equal concentrations, a population of TTR•I, TTR•I2 and unliganded TTR is observed, dictated by the dissociation constants. It is now established by other studies that inhibitor occupancy of only one of the two TTR binding sites is sufficient to stabilize the entire tetramer against amyloidogenesis (Wiseman, R. L.; et al. J. Am. Chem. Soc. 2005, in press). This is further supported by the observation herein that twenty-six of these dibenzofurans are excellent TTR amyloidogenesis inhibitors (<40% fibril formation) at a concentration equal to that of TTR (3.6 μM each, FIG. 3).

Another series concerns the target T2, WT-TTR (Homo sapiens, UniProt P02766).
T2 construct: made in house
The series can be described thus: stagnant acid-mediated TTR fibril formation assay (turbidity). The series is classed as biochemical. The following applies: WT-TTR 3.6 μM; for inhibitor potency against fibril formation (in words): inhibitor 3.6 μM, pH 4.4, 72 h. How it is done:
as §3, §1
FIG. 2 is a table highlighting the concentration dependent acid-substituted dibenzofuran activity against WT-TTR (3.6 μM) amyloid fibril formation (f.f.) at pH 4.4 (72 h). Values represent the extent of f.f. and thus inhibitor efficacy relative to WT-TTR fibril formation in the absence of inhibitor (assigned to be 100%): complete inhibition is equivalent to 0% f.f.
as §2
FIG. 6 is a chart showing dibenzofuran-based inhibitor activity (7.2 μM) against WT-TTR (3.6 μM) amyloid fibril formation (f.f.) at pH 4.4 (72 h). […]

This is an account of results in patent US20080319175A1, “Transthyretin Stabilization” (The Scripps Research Institute, priority 2004, published 2008).

“Also recorded” adds a separate entry of the source.

`O=C(O)c1cccc2c1oc1c(C(=O)O)cccc12` [Compound 1, dibenzofuran-4,6-dicarboxylic acid, reference compound]: the “binding selectivity to TTR in human blood plasma (in words)” value (shortened to “binding selectivity to TTR”) in series [1] is recorded as “no measurable binding selectivity”.
As to `O=C(O)c1cccc2c1oc1c(C(=O)O)ccc(Nc3cccc(C(F)(F)F)c3)c12` [Compound 26], the “precipitation of compound in the absence of TTR” value (from here on “precipitation of compound”) in series [2] is given as “no measurable precipitation”.
On the same count and under the same terms, the result for `O=C(O)c1cccc2c1oc1c(C(=O)O)ccc(Nc3cccc(Cl)c3)c12` [Compound 27] reads “no measurable precipitation”.
With `O=C(O)c1cccc2c1oc1c(C(=O)O)ccc(Nc3cc(Cl)cc(Cl)c3)c12` [Compound 30], the “precipitation of compound” value in series [2] was “no measurable precipitation”.
Consider `O=C(O)c1cccc2c1oc1c(C(=O)O)ccc(Nc3cc(C(F)(F)F)cc(C(F)(F)F)c3)c12` [Compound 31], for which the “binding selectivity to TTR” value in series [1] was “all but two (31 and 35) exhibit dramatically increased binding selectivity”.
In the case of `O=C(O)c1cccc(Nc2ccc(C(=O)O)c3oc4c(C(=O)O)cccc4c23)c1` [Compound 33], the “inhibitor potency against fibril formation (in words)” value (from here on “inhibitor potency”) on WT-TTR is listed as “amongst the most potent”. Moreover, in series [1], the “binding selectivity to TTR” value is “modest”.
On to `O=C(O)c1cc(Nc2ccc(C(=O)O)c3oc4c(C(=O)O)cccc4c23)cc(C(=O)O)c1` [Compound 34], for which, at WT-TTR, the “inhibitor potency” value is reported as “all the inhibitors (except 34) display increased potency relative to the parent compound (1)”. The “inhibition of WT-TTR fibril formation at 7.2 μM inhibitor (in words)” value at WT-TTR (inhibitor 7.2 μM, pH 4.4, 37° C., 72 h) is listed as “not as effective; also recorded: all but one (34) completely inhibit fibril formation”.
Take `O=C(O)c1ccc(Nc2ccc(C(=O)O)c3oc4c(C(=O)O)cccc4c23)cc1` [Compound 35]: the “binding selectivity to TTR” value in series [1] was “all but two (31 and 35) exhibit dramatically increased binding selectivity”.
For the compound `O=C(O)c1cccc2c1oc1c(C(=O)O)ccc(Nc3ccccc3F)c12` [Compound 36], the “inhibitor potency” value at WT-TTR is on record as “most potent”.
For `O=C(O)c1cccc2c1oc1c(C(=O)O)ccc(Oc3cccc(C(F)(F)F)c3)c12` [Compound 45], the “precipitation of compound” value in series [2] is “no measurable precipitation”.
Same read-out and setting: the result for `O=C(O)c1cccc2c1oc1c(C(=O)O)ccc(-c3cc(F)cc(F)c3)c12` [Compound 62] reads “no measurable precipitation”.
On to `O=C(O)c1cccc2c1oc1c(C(=O)O)ccc(-c3cc(Cl)cc(Cl)c3)c12` [Compound 63], for which the “inhibitor potency” value on WT-TTR is reported as “most potent”.
For `O=C(O)c1cccc2c1oc1c(C(=O)O)ccc(-c3ccccc3F)c12` [Compound 67], the “inhibitor potency” value against WT-TTR was “most potent”.
`O=C(O)c1cccc(-c2ccc(C(=O)O)c3oc4c(C(=O)O)cccc4c23)c1` [Compound 69]: the “inhibitor potency” value at WT-TTR is “amongst the most potent”. For the same compound, in series [1], the “binding selectivity to TTR” value is on record as “modest”.
